Molecules are shown by their SMILES.

For 49 compounds, IC50 results are on record in patent publication US10065941B2, “Aminotriazine derivative and pharmaceutical composition comprising the same” (Shionogi & Co., Ltd., priority 2013, dated 2018).

This experiment deals with human P2X3 receptor (Homo sapiens (Human), UniProt P56373). The experiment in a line: Evaluation of human P2X3 receptor inhibitory activity (Test Example 1). It counts as cell-based. Particulars: C6BU-1 cell transfected with human P2X3 receptor gene, FLIPR 384. On the procedure:
Stably expressing cell line (C6BU-1 cell transfected with human P2X3 receptor gene (GenBank accession number Y07683) was used. The cells were seeded in a 384-well PDL-coated microtiter plate at a concentration of 3000 cells/well and cultured in the medium (8.3% fetal bovine serum, 8.3% horse serum, and 1% antibiotic and antifungal in DMEM) for one day at 37° C. under 5% carbon dioxide atmosphere. The medium was replaced with 4 μM Fluo-3-AM solution (20 mM HEPES, 137 mM NaCl, 2.7 mM KCl, 0.9 mM MgCl2, 5.0 mM CaCl2, 5.6 mM D-glucose, 2.5 mM probenecid, 0.5% BSA, and 0.04% Pluronic F-127, pH 7.5) and incubated at 37° C. under 5% dioxide carbon atmosphere for one hour. The plate was washed with washing buffer (20 mM HEPES, 137 mM NaCl, 2.7 mM KCl, 0.9 mM MgCl2, 5.0 mM CaCl2, 5.6 mM D-glucose, 2.5 mM probenecid, pH7.5), and each well was added with 20 μL of the washing buffer. The plate was placed in High-Throughput Screening System FLIPR 384 (Molecular Device Co.). Measurement of fluorescence intensity by FLIPR 384 was started, and 20 μL of DMSO solutions containing different concentrations of the test compound as prepared by dilution with dilution buffer (20 mM HEPES, 137 mM NaCl, 2.7 mM KCl, 0.9 mM MgCl2, 5.0 mM CaCl2, 5.6 mM D-glucose, 2.5 mM probenecid, 0.1% Pluronic F-127, pH7.5) were dispensed to each well through the built-in automatic dispenser. Five minutes after, 150 nM ATP solution (25 μL) prepared by dilution with the dilution buffer was dispensed through the built-in automatic dispenser, and the measurement of fluorescence intensity was continued for 4 min. For each well, the specific maximum fluorescence intensity was calculated as the ratio of the maximum fluorescence intensity after addition of the ATP solution to the fluorescence intensity at the starting of the measurement. […] The specific maximum fluorescence intensity and IC50 were calculated using Spotfire (Science & Technology Systems, Inc.)

Sequence of human P2X3 receptor (P56373 whole entry): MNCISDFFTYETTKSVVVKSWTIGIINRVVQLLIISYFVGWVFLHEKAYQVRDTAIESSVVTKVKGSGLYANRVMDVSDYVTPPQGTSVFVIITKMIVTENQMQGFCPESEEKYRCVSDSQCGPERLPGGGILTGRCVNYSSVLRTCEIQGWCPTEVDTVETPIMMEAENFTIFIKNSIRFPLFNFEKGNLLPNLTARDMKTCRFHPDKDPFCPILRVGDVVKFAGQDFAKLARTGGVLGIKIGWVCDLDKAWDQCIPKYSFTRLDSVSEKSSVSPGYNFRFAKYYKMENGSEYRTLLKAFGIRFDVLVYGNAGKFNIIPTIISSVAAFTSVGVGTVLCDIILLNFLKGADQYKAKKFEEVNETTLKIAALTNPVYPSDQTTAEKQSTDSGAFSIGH

Consider `CC(C)(Cn1c(=O)[nH]/c(=N\c2ccc(Oc3ncns3)cc2)n(Cc2ccc(Cl)cc2)c1=O)C(=O)O` [Compound R-163], for which the IC50 amounted to 14 nM. This lies in the double-digit nanomolar range.

In the case of `COC(=O)[C@H](C)[C@H](C)n1c(=O)[nH]/c(=N\c2ccc(Oc3ccc(Cl)cn3)cc2)n(Cc2ccc(C)cc2)c1=O` [Compound I-120], half-maximal inhibition (IC50) was put at 9 nM.

With `COC(=O)C(C)(C)Cn1c(=O)[nH]/c(=N\c2ccc(Oc3ncc(C)s3)cc2)n(Cc2ccc(Cl)cc2)c1=O` [Compound R-149], the IC50 was 12 nM.

Turning to `COC(=O)[C@@H](Cn1c(=O)[nH]/c(=N\c2ccc(Oc3ccccn3)cc2)n(Cc2ccc(Cl)cc2)c1=O)OC` [Compound I-203], the IC50 was found to be 3 nM.

`C[C@@H](Cn1c(=O)[nH]/c(=N\c2ccc(Oc3ncccc3F)cc2)n(Cc2ccc(C(F)F)cc2)c1=O)C(=O)O` [Compound I-169] yielded an IC50 of 21 nM. This IC50 is about 7-fold higher than that of the compound before.

Turning to `C[C@@H](Cn1c(=O)[nH]/c(=N\c2ccc(Oc3ccc(OC(F)F)cn3)cc2)n(Cc2ccc(Cl)cc2)c1=O)C(=O)O` [Compound I-022], the IC50 worked out at 4 nM.

`Cc1ccc(Cn2c(=O)n([C@@H](C)[C@@H](C)C(=O)O)c(=O)[nH]/c2=N\c2ccc(Oc3ncc(C)s3)cc2)cc1` [Compound R-217] registered an IC50 of 8 nM.

In turn, `CC(C)n1c(=O)[nH]/c(=N\c2ccc(Oc3cccc(C#N)n3)c(Cl)c2)n(Cc2ccc(Cl)cc2)c1=O` [Compound R-011] showed an IC50 of 49 nM.

With `COC(=O)[C@@H](C)Cn1c(=O)[nH]/c(=N\c2ccc(Oc3cccnn3)cc2)n(Cc2ccc(Cl)cc2)c1=O` [Compound R-119], the IC50 was found to be 5 nM. Against the preceding compound, the IC50 is about 9.8-fold lower.

`C[C@@H](C(=O)O)[C@H](C)n1c(=O)[nH]/c(=N\c2ccc(Oc3cnc(C#N)nc3)cc2)n(Cc2ccc(Cl)cc2)c1=O` [Compound R-249] displayed an IC50 of 6 nM. The IC50 values of the last two compounds are within 1.5-fold of each other.

For the compound `COc1ccc(Oc2ccc(/N=c3\[nH]c(=O)n(C[C@H](C)C(=O)O)c(=O)n3Cc3ccc(C)cc3)cc2)nc1` [Compound I-229], the IC50 was determined as 6 nM.

In turn, `CC(C)(Cn1c(=O)[nH]/c(=N\c2ccc(Oc3cc(Cl)ccn3)cc2)n(Cc2ccc(Cl)cc2)c1=O)C(=O)O` [Compound I-086] showed an IC50 of 33 nM.

`COC(=O)C(C)(C)Cn1c(=O)[nH]/c(=N\c2ccc(Oc3ccc(OC(F)F)cn3)cc2)n(Cc2ccc(C)cc2)c1=O` [Compound I-133] gave an IC50 of 8 nM.

Compound `C[C@@H](Cn1c(=O)[nH]/c(=N\c2ccc(Oc3cc(CO)ccn3)cc2)n(Cc2ccc(Cl)cc2)c1=O)C(=O)O` [Compound I-240] came in with an IC50 of 22 nM.

`C[C@@H](Oc1ccc(/N=c2\[nH]c(=O)n(CC(C)(C)C(=O)O)c(=O)n2Cc2ccc(Cl)cc2)cc1O[C@H](C)C(F)(F)F)C(F)(F)F` [Compound R-096] returned an IC50 of 156 nM.

For the compound `COc1cccnc1Oc1ccc(/N=c2\[nH]c(=O)n(C[C@H](C)C(=O)O)c(=O)n2Cc2ccc(Cl)cc2)cc1` [Compound I-156], the IC50 is 12 nM.

For the compound `O=c1[nH]/c(=N\c2ccc(Oc3ccccn3)cc2)n(Cc2ccc(Cl)cc2)c(=O)n1[C@H]1C[C@@H](C(=O)O)C1` [Compound I-175], the concentration for half-maximal inhibition (IC50) was 9 nM.

As for `C[C@H](C(=O)O)[C@@H](C)n1c(=O)[nH]/c(=N\c2ccc(Oc3ccccn3)cc2)n(Cc2ccc(Cl)cc2)c1=O` [Compound I-152], 6 nM corresponded to half-maximal inhibition (IC50).

Take `COC(=O)[C@@H](C)Cn1c(=O)[nH]/c(=N\c2ccc(N3CCOCC3)c(F)c2)n(Cc2ccc(Cl)cc2)c1=O` [Compound R-106]: it took 379 nM to reach half-maximal inhibition (IC50).

In turn, `COC(=O)[C@@H](C)Cn1c(=O)[nH]/c(=N\c2ccc(Oc3cc(Cl)ccn3)cc2)n(Cc2ccc(Cl)cc2)c1=O` [Compound I-060] returned an IC50 of 24 nM.

As for `C[C@@H](Cn1c(=O)[nH]/c(=N\c2ccc(Oc3cncc(F)c3)c(F)c2)n(Cc2ccc(Cl)cc2)c1=O)C(=O)O` [Compound R-117], the IC50 worked out at 6 nM.

Consider `COC(=O)[C@H](C)[C@H](C)n1c(=O)[nH]/c(=N\c2ccc(Oc3ccc(C)cn3)cc2)n(Cc2ccc(C)cc2)c1=O` [Compound I-109], for which the IC50 was 6 nM.

`COC(=O)[C@@H](C)Cn1c(=O)[nH]/c(=N\c2ccc(Oc3ccc(F)cn3)cc2)n(Cc2ccc(Cl)s2)c1=O` [Compound I-272] displayed an IC50 of 8 nM.

On to `COCc1ccc(Oc2ccc(/N=c3\[nH]c(=O)n(C[C@H](C)C(=O)O)c(=O)n3Cc3ccc(Cl)cc3)cc2)nc1` [Compound I-241], for which the IC50 was 8 nM. This counts as single-digit nanomolar.

`COc1nccc(Oc2ccc(/N=c3\[nH]c(=O)n([C@@H](C)[C@@H](C)C(=O)O)c(=O)n3Cc3ccc(Cl)cc3)cc2)n1` [Compound R-010] gave an IC50 of 10 nM.

Turning to `COC(=O)[C@@H](C)Cn1c(=O)[nH]/c(=N\c2ccc(Oc3ccccn3)c(C)c2)n(Cc2ccc(C)cc2)c1=O` [Compound I-224], half-maximal inhibition (IC50) required 6 nM.

In turn, `COc1cc(Oc2ccc(/N=c3\[nH]c(=O)n(C[C@H](C)C(=O)O)c(=O)n3Cc3ccc(Cl)cc3)cc2)ccn1` [Compound R-032] displayed an IC50 of 4 nM.

For the compound `CCOC(=O)CCCn1c(=O)[nH]/c(=N\c2ccc(Oc3ccc(F)cn3)cc2)n(Cc2ccc(C)cc2)c1=O` [Compound R-295], the IC50 is 6 nM. Compared with the last compound, the IC50 is about 1.5-fold higher.

Compound `COC(=O)C[C@@H](C)n1c(=O)[nH]/c(=N\c2ccc(Oc3ccccn3)cc2)n(Cc2ccc(C)cc2)c1=O` [Compound I-186] showed an IC50 of 5 nM.

For `CC(C)(Cn1c(=O)[nH]/c(=N\c2ccc(Oc3ccc(OC(F)F)cn3)cc2)n(Cc2ccc(Cl)cc2)c1=O)C(=O)O` [Compound I-023], the IC50 was 7 nM.

Turning to `COc1ccc(Oc2ccc(/N=c3\[nH]c(=O)n(C[C@H](C)C(=O)O)c(=O)n3Cc3ccc(Cl)cc3)cc2)nn1` [Compound R-085], the IC50 came out at 6 nM.

Turning to `CCc1oc2ccc(/N=c3\[nH]c(=O)n([C@H]4C[C@@H](C(=O)O)C4)c(=O)n3Cc3ccc(Cl)cc3)cc2c1C` [Compound R-024], the IC50 is 18 nM.

Consider `COC(=O)[C@@H](C)Cn1c(=O)[nH]/c(=N\c2ccc(Oc3ccccn3)cc2)n(Cc2ccc(C(F)F)cc2)c1=O` [Compound I-194], for which the half-inhibitory concentration (IC50) was 12 nM.

Compound `C[C@@H](C(=O)O)[C@H](C)n1c(=O)[nH]/c(=N\c2ccc(Oc3ccccn3)c(F)c2)n(Cc2ccc(Cl)cc2)c1=O` [Compound I-231] registered an IC50 of 7 nM.

Consider `COC(=O)[C@@H](C)Cn1c(=O)[nH]/c(=N\c2ccc(Oc3ccnc(C)n3)cc2)n(Cc2ccc(Cl)cc2)c1=O` [Compound R-042], for which the midpoint of inhibition, the IC50, lay at 5 nM.

As to `COC(=O)C(C)(C)Cn1c(=O)[nH]/c(=N\c2ccc(Oc3ccccn3)cc2)n(Cc2ccc(C)cc2)c1=O` [Compound I-150], it took 4 nM to reach half-maximal inhibition (IC50). The IC50 values of the last two compounds are within 1.5-fold of each other.

Compound `Cc1ccc(Cn2c(=O)n(C[C@H](C)C(=O)O)c(=O)[nH]/c2=N\c2ccc(Oc3ccc(OC(F)F)cn3)cc2)cc1` [Compound I-135] yielded an IC50 of 4 nM.

Compound `CC(O)c1ccc(Oc2ccc(/N=c3\[nH]c(=O)n(CCC(=O)O)c(=O)n3Cc3ccc(Cl)cc3)cc2)nc1` (stereo not shown) [Compound R-306] registered an IC50 of 14 nM.

In turn, `COC(=O)[C@@H](C)Cn1c(=O)[nH]/c(=N\c2ccc(Oc3ccc(CO)nc3)cc2)n(Cc2ccc(Cl)cc2)c1=O` [Compound R-152] came in with an IC50 of 5 nM. Compared with the last compound, the IC50 is about 2.8-fold lower.

Consider `CCc1[nH]c2ccc(/N=c3\[nH]c(=O)n([C@@H](C)[C@@H](C)C(=O)O)c(=O)n3Cc3ccc(Cl)cc3)cc2c1C` [Compound R-128], for which the IC50 was found to be 11 nM.

In turn, `COC(=O)[C@@H](C)Cn1c(=O)[nH]/c(=N\c2ccc(Oc3ccc(OC)cn3)cc2)n(Cc2ccc(C)cc2)c1=O` [Compound I-222] returned an IC50 of 4 nM.

The compound `C[C@@H](Cn1c(=O)[nH]/c(=N\c2ccc(Oc3ccncc3)cc2)n(Cc2ccc(Cl)cc2)c1=O)C(=O)O` [Compound R-208] showed an IC50 of 5 nM.

Compound `COC(=O)[C@@H](C)Cn1c(=O)[nH]/c(=N\c2ccc(Oc3ccc(C)nn3)c(F)c2)n(Cc2ccc(Cl)cc2)c1=O` [Compound R-174] came in with a half-maximal inhibitory concentration (IC50) of 10 nM.

Consider `Cc1ccc(Cn2c(=O)n([C@@H](C)[C@@H](C)C(=O)O)c(=O)[nH]/c2=N\c2ccc(Oc3cccc(F)n3)cc2)cc1` [Compound I-106], for which the IC50 amounted to 6 nM.

`COC(=O)[C@@H](C)Cn1c(=O)[nH]/c(=N\c2ccc(Oc3ncc(C)s3)cc2)n(Cc2ccc(C)cc2)c1=O` [Compound R-214]: the IC50 worked out at 6 nM.

Compound `CC(CO)(CO)Cn1c(=O)[nH]/c(=N\c2ccc(Oc3ccccn3)cc2)n(Cc2ccc(Cl)cc2)c1=O` [Compound R-244] yielded an IC50 of 4 nM. This IC50 lies about 1.5-fold lower than the previous one.

`COC(=O)C(C)(C)Cn1c(=O)[nH]/c(=N\c2ccc(Oc3ccnc(C)n3)cc2)n(Cc2ccc(Cl)cc2)c1=O` [Compound R-043] returned an IC50 of 5 nM.

With `Cc1nccc(Oc2ccc(/N=c3\[nH]c(=O)n(CC(C)(C)C(=O)O)c(=O)n3Cc3ccc(Cl)cc3)cc2)n1` [Compound R-045], inhibition was half-maximal at 14 nM (IC50). This IC50 lies about 2.8-fold higher than the previous one.

`Cc1ccc(Cn2c(=O)n(C[C@H](C)C(=O)O)c(=O)[nH]/c2=N\c2ccc(Oc3ccc(C(C)O)cn3)cc2)cc1` (stereo partly shown) [Compound I-262] gave an IC50 of 7 nM.

The IC50 is the point on the concentration scale where inhibition reaches its midpoint.
